System: vancomycin resistant E.faecium (VRE)
Test: In vitro proliferation inhibition of E. faecium (OD600)
Format: cell-based
Settings: pH 7.5; 10 µg/mL V-161, 1 µg/mL niclosamide, alone or in combination; NaTY medium, 37°C, 13 hours; OD600 (Fig. 2)

Row | SMILES | proliferation of bacteria
1 | O=C(Nc1ccc([N+](=O)[O-])cc1Cl)c1cc(Cl)ccc1O [niclosamide, 5-chloro-2-hydroxy-N-(2-chloro-4-nitrophenyl)benzamide] | not completely inhibited
2 | Cc1ccc2[nH]c(-c3ccc(N(C)C)cc3)nc2c1 [Example V-161, N,N-dimethyl-4-(5-methyl-1H-benzo[d]imidazol-2-yl)aniline] | not completely inhibited

Reference: patent publication EP4652995A1, “ANTIBACTERIAL COMPOSITION, PHARMACEUTICAL AGENT, AND ANTIBACTERIAL METHOD” (priority 2023, dated 2024)
